Like-named read-outs stand apart in the source and are kept apart here.
How the values were obtained:
[1] = test system: arrhythmia induced by Aconitine in mice; assay: arrhythmia induced by Aconitine in mice; format: in vivo; settings: for change in vivo at 300 mg/kg / change in vivo at 150 mg/kg / change in vivo at 75 mg/kg / change in vivo at 40 mg/kg / change in vivo at 89 mg/kg: Mus musculus, iv; for antiarrhythmic activity (in words): Aconitine, mice
Protocol: The antiarrhythmic effect of the compounds was also investigated in mice according to the P. W. Nwangwu, T. Holcslow procedure (4). Using Aconitine (5 mg/ml) as arrhythmogenic agent, the changes in the cardiac rhythm of the animals were recorded and the onset time of initial arrhythmia and/or of ventricular tachycardia were used as End point.
Antiarrhythmic agents display an increase in the latency time of initial ECG change.
(4) P. W. Nvangvu, T. L. Holcslow, Arch. Int. Pharmacodyn. 229, 219 (1977)
on the arrhythmia induced by Aconitine (5 γ/ml) in mice.
% increase of the time to onset of initial cardiac arrythmia

[2] = test system: plasma cholesterol, triglycerides and lipoproteins in rat; assay: plasma cholesterol, triglycerides and lipoproteins in rat treated with olive oil; format: in vivo; settings: rats, single treatment
Protocol: In the rats the lipoproteic pattern altered due to an oil administration by gavage, was restored after a single treatment with d,l dipropyl ACAR; d,l ethyl exanoyl CAR; d,l 3 bromopropionyl CAR and d,l pyruvyl CAR.
The effect of some acyl derivatives of formula (I) on plasma cholesterol,
triglycerides and lipoproteins in rat
treated with olive oil, 15 ml kg^-1 orally. Mean Values ± SEM
Student "t" test .quadrature., Δ and indicate respectively a non
significant difference, a P ≤ 1% and 1%.

rat's ventricle strip = assay: antiarrhythmic effect, isolated rat ventricle strip test; settings: for inhibition at 1 µM / activation at 1 µM: Rattus norvegicus, concentration 1·10^-6 M; for inhibition at 1 µM: decrease; for activation at 1 µM: increase
Text: (2) M. Libonati and G. Segre, Archivio Italiano di Scienze Farmacologiche. Serie XIII, Vol. X, pag. 3, (1960)
effect of some acyl derivatives (concentration 1 · 10^-6
of the formula (1) on the rat's ventricle strip test.
% variation versus basal value.

[3] = acute toxicity (tolerance) i.p. in mice, Weil method; settings: mouse, in vivo, ip, Weil method (N = 5, K = 4)
Text: The tolerance of the Acyl-carnitines of the formula (I), as well as their salts administered by intraperitoneal route was investigated in mice using the Weil Method (1).
LD50, mg kg^-1 i.p. in mice,
of some acyl derivatives of formula (1).
Weil method (N = 5, K = 4)

[4] = read-out: latency time increase % of controls, arrhythmias
[5] = read-out: latency time increase % of controls, tachycardia
[6] = read-out: maximed frequency (- %), % variation versus basal value
[7] = read-out: whole excitability (- %), % variation versus basal value
[8] = read-out: refractory period (+ %), % variation versus basal value
[9] = read-out: rheobase (+ %), % variation versus basal value

Compound | change in vivo at 300 mg/kg [1, 4] | change in vivo at 300 mg/kg [1, 5] | lipoproteic pattern altered due to oil administration (in words) [2] | inhibition at 1 µM (rat's ventricle strip; [6]) | inhibition at 1 µM (rat's ventricle strip; [7]) | activation at 1 µM (rat's ventricle strip; [8]) | activation at 1 µM (rat's ventricle strip; [9]) | LD50 [3] | antiarrhythmic properties (in words) (rat's ventricle strip; isolated rat ventricle method) | antiarrhythmic activity (in words) [1] | change in vivo at 150 mg/kg [1, 4] | change in vivo at 150 mg/kg [1, 5] | change in vivo at 75 mg/kg [1, 4] | change in vivo at 75 mg/kg [1, 5] | change in vivo at 40 mg/kg [1, 4] | change in vivo at 40 mg/kg [1, 5] | change in vivo at 89 mg/kg [1, 4] | change in vivo at 89 mg/kg [1, 5]
CCCCC(CC)C(=O)OC(CC(=O)[O-])C[N+](C)(C)C (racemic) [d,l 2-ethylhexanoyl CAR] | 20% | 10% | restored | 25.5% | 40.3% | 22.8% | 21.8% | 950 mg/kg | – | – | – | – | – | – | – | – | – | –
C[N+](C)(C)CC(CC(=O)[O-])OC(=O)CCCCl (racemic) [d,l 4-Cl--butyryl CAR] | 20% | 10% | – | 60.2% | 55.1% | 38.3% | 35.2% | 850 mg/kg | most clear out antiarrhythmic properties | – | – | – | – | – | – | – | – | –
C[N+](C)(C)CC(CC(=O)[O-])OC(=O)C1CCCCC1 (racemic) [d,l cyclohexyl CAR] | 50% | 38% | – | 22.1% | 26.4% | 15.8% | 18.2% | 850 mg/kg | – | – | – | – | – | – | – | – | – | –
C[N+](C)(C)CC(CC(=O)[O-])OC(=O)CCC1CCCCC1 (racemic) [d,l cyclohexylpropionyl CAR] | – | – | – | 45.3% | 25.5% | 12.5% | 22.4% | 955 mg/kg | – | markedly exhibited | 70% | 55% | – | – | – | – | – | –
CCC(CC)C(=O)OC(CC(=O)[O-])C[N+](C)(C)C (racemic) [d,l diethyl ACAR] | 25% | 32% | – | 25.1% | 27.5% | 31.2% | 20.6% | 1200 mg/kg | – | – | – | – | – | – | – | – | – | –
C[N+](C)(C)CC(CC(=O)[O-])OC(=O)C=Cc1cccc(Br)c1 (racemic) [d,l m-bromocinnamoyl CAR] | – | – | – | 28.5% | 50.4% | 45.2% | 38.1% | 650 mg/kg | – | – | 40% | 28% | – | – | – | – | – | –
C[N+](C)(C)CC(CC(=O)[O-])OC(=O)Cc1ccc2ccccc2c1 (racemic) [d,l naphtalene ACAR] | – | – | – | 41.2% | 40.1% | 39.3% | 41.2% | 880 mg/kg | – | – | – | – | 25% | 10% | – | – | – | –
C[N+](C)(C)CC(CC(=O)[O-])OC(=O)C=Cc1ccc(Cl)cc1 (racemic) [d,l p-chlorocinnamoyl CAR] | 25% | 10% | – | 25.1% | 22.2% | 22.3% | 20.4% | 935 mg/kg | – | – | – | – | – | – | – | – | – | –
CC(C)Cc1ccc(CC(=O)OC(CC(=O)[O-])C[N+](C)(C)C)cc1 (racemic) [d,l p-isobutyl phenyl ACAR] | 20% | 10% | – | 38.2% | 35.2% | 22.5% | 22.2% | 378 mg/kg | – | – | – | – | – | – | – | – | – | –
COc1ccc(C=CC(=O)OC(CC(=O)[O-])C[N+](C)(C)C)cc1 (racemic) [d,l p-methoxycinnamoyl CAR] | – | – | – | 22.2% | 31.5% | 36.1% | 22.2% | 440 mg/kg | – | markedly exhibited | 70% | 56% | – | – | – | – | – | –
Cc1ccc(C=CC(=O)OC(CC(=O)[O-])C[N+](C)(C)C)cc1 (racemic) [d,l p-methylcinnamoyl CAR] | – | – | – | 38.6% | 71.1% | 45.3% | 32.4% | 620 mg/kg | – | – | 20% | 9% | – | – | – | – | – | –
CC(C)(C)C(=O)OC(CC(=O)[O-])C[N+](C)(C)C (racemic) [d,l pivaloyl CAR] | 20% | 10% | – | 58.4% | 65.5% | 40.6% | 40.2% | 855 mg/kg | – | – | – | – | – | – | – | – | – | –
C[N+](C)(C)CC(CC(=O)[O-])OC(=O)C=Cc1cccc(C(F)(F)F)c1 (racemic) [d,l trifluoromethylcinnamoyl CAR] | – | – | – | 41.3% | 24.3% | 25.7% | 19.5% | 845 mg/kg | – | – | – | – | – | – | 50% | 30% | – | –
C=C[C@H]1C[N@@]2CC[C@H]1C[C@@H]2[C@@H](O)c1ccnc2ccc(OC)cc12 [Quinidine, reference compound] | – | – | – | 72.5% | 191% | 57.4% | 51.2% | – | – | – | – | – | – | – | – | – | 50% | 41.7%
CCCC(CCC)C(=O)O[C@@H](CC(=O)[O-])C[N+](C)(C)C [d dipropyl ACAR] | – | – | – | 22.4% | 25.5% | 38.3% | 21.7% | 1600 mg/kg | – | – | – | – | – | – | 50% | 30% | – | –
C[N+](C)(C)C[C@@H](CC(=O)[O-])OC(=O)CCBr [l 3-Br--propionyl CAR] | – | – | – | 50.5% | 60.2% | 45.1% | 42.4% | 960 mg/kg | – | – | 25% | 12% | – | – | – | – | – | –
CC(C)(C)C(=O)O[C@H](CC(=O)[O-])C[N+](C)(C)C [l pivaloyl CAR] | 25% | 15% | – | 60.4% | 48.1% | 38.3% | 35.1% | 618 mg/kg | – | – | – | – | – | – | – | – | – | –
C[N+](C)(C)C[C@@H](CC(=O)[O-])OC(=O)C=Cc1cccc(C(F)(F)F)c1 [l trifluoromethylcinnamoyl CAR] | – | – | – | 32.7% | 60.5% | 40.1% | 39.2% | 540 mg/kg | – | – | – | – | – | – | 60% | 45% | – | –

Source: US4401827A, “Novel acyl-derivatives of carnitine and process for their preparation” (Sigma-Tau, priority 1978, dated 1983)
